Data published in patent publication US20260013505A1, “Herbicidal Compositions Comprising Diclosulam” (BASF SE, priority 2024, published 2026).

Key:
Type in all cases: in vivo
Amaranthus viridis = test: Example 2 post-emergence field trial, AMAVI; details: 21 DAT, growth stage 16-18
Procedure: (§1) In the examples below, using the method of S. R. Colby (1967) “Calculating synergistic and antagonistic responses of herbicide combinations”, Weeds 15, p. 22ff., the value E, which is expected if the activity of the individual active compounds is only additive, was calculated:
(§2) [formula] • where • X=percent activity using active herbicide A at an application rate a; • Y=percent activity using active herbicide B (e.g. diclosulam) at an application rate b; • E=expected activity (in %) by A+B at application rates a+b.
(§3) If the value found experimentally is higher than the value E calculated according to Colby, a synergistic effect is present.
(§4) On field test sites, natural weed infestation or seeded weeds were treated post-emergence of the weeds.
(§5) In the field trials, the weeds were treated as indicated below.
(§6) In the following experiments, the herbicidal activity for the individual herbicidal compositions (solo and mixture applications) was assessed at the indicated days after treatment (DAT). The assessments for the damage on undesired weeds caused by the composition was carried out using a scale from 0 to 100%, compared to the untreated control plants. Here, 0 means no damage and 100 means complete destruction of the plants. […]

Ipomoea triloba = test: Example 1 post-emergence field trial, IPOTR; details: 14 DAT, growth stage 35
Procedure: as §1, §2, §3, §4, §5, §6

Amaranthus hybridus = test: Example 1 post-emergence field trial, AMACH; details: B solo 30 g ai/ha, 14 DAT, growth stage 35
Procedure: as §1, §2, §3, §4, §5, §6

Digitaria horizontalis = test: Example 1 post-emergence field trial, DIGHO; details: B solo 30 g ai/ha, 14 DAT, growth stage 18-31
Procedure: as §1, §2, §3, §4, §5, §6

Euphorbia heterophylla = test: Example 1 post-emergence field trial, EPHHL; details: B solo 30 g ai/ha, 14 DAT, growth stage 35
Procedure: as §1, §2, §3, §4, §5, §6

Cenchrus echinatus = test: Example 1 post-emergence field trial, CCHEC; details: B solo 30 g ai/ha, 14 DAT, growth stage 18-31
Procedure: as §1, §2, §3, §4, §5, §6

Eleusine indica [1] = test: Example 2 post-emergence field trial, ELEIN; details: B solo 30 g ai/ha, 21 DAT, growth stage 21-25
Procedure: as §1, §2, §3, §4, §5, §6

Sorghum vulgare = test: Example 2 post-emergence field trial, SORVU; details: B solo 30 g ai/ha, 14 DAT, growth stage 14-15
Procedure: as §1, §2, §3, §4, §5, §6

Brachiaria plantaginea = test: Example 1 post-emergence field trial, BRAPL; details: B solo 30 g ai/ha, 14 DAT, growth stage 21-25
Procedure: as §1, §2, §3, §4, §5, §6

Portulaca oleracea = test: Example 2 post-emergence field trial, POROL; details: B solo 30 g ai/ha, 21 DAT, growth stage 14-16
Procedure: as §1, §2, §3, §4, §5, §6

Eleusine indica [2] = test: Example 1 post-emergence field trial, ELEIN; details: B solo 30 g ai/ha, 14 DAT, growth stage 18-31
Procedure: as §1, §2, §3, §4, §5, §6

SMILES | % herbicidal activity (Amaranthus viridis; A-1 solo 25 g ai/ha) [%] | % herbicidal activity (Ipomoea triloba; A-1 solo 25 g ai/ha) [%] | % herbicidal activity (Amaranthus hybridus) [%] | % herbicidal activity (Digitaria horizontalis) [%] | % herbicidal activity (Euphorbia heterophylla) [%] | % herbicidal activity (Cenchrus echinatus) [%] | % herbicidal activity (Amaranthus viridis; B solo 30 g ai/ha) [%] | % herbicidal activity (Ipomoea triloba; B solo 30 g ai/ha) [%] | % herbicidal activity (Eleusine indica [1]) [%] | % herbicidal activity (Sorghum vulgare) [%] | % herbicidal activity (Brachiaria plantaginea) [%] | % herbicidal activity (Portulaca oleracea) [%] | % herbicidal activity (Eleusine indica [2]) [%]
CCOC(=O)COc1ccccc1Oc1nc(-n2c(=O)cc(C(F)(F)F)n(C)c2=O)c(F)cc1Cl [A-1, ethyl 2-[2-[[3-chloro-5-fluoro-6-[3-methyl-2,6-dioxo-4-(trifluoromethyl)pyrimidin-1-yl]-2-pyridyl]oxy]phenoxy]acetate] | 69 | 61 |  |  |  |  |  |  |  |  |  |  | 
CCOc1nc(F)cc2nc(S(=O)(=O)Nc3c(Cl)cccc3Cl)nn12 [B, diclosulam] |  |  | 22 | 0 | 16 | 20 | 65 | 17 | 0 | 32 | 3 | 58 | 0
